Results as given in PubChem BioAssay AID192 (DTP/NCI, 2004).
“And” between values parts separate entries of the source, which are not always exact repeats. Equal entries are not always repeated. Toxic doses and inconclusive results are not listed.

System: BDF1 mice, B16 melanoma ip, median survival T/C
Experiment: NCI In Vivo Anticancer Drug Screen. Data for tumor model B16 Melanoma (intraperitoneal) in B6D2F1 (BDF1) mice
Details: endpoint: median survival time, higher = longer survival
Protocol: The antitumor activity of compounds was measured in mice bearing transplantable tumors. Survival or tumor size were measured and the results are expressed as the measurement made in the treated group (T) divided by the measurement made in the vehicle treated control group (C). The tumor model used in this assay is B16 Melanoma (intraperitoneal) in B6D2F1 (BDF1) mice

[1] = dose: 100.0 mg/kg/injection, schedule: Q04DX003 (ip), vehicle: Klucel (hydroxypropylcellulose) (HPC)
[2] = dose: 200.0 mg/kg/injection, schedule: Q04DX003 (ip), vehicle: Klucel (hydroxypropylcellulose) (HPC)
[3] = dose: 400.0 mg/kg/injection, schedule: Q04DX003 (ip), vehicle: Klucel (hydroxypropylcellulose) (HPC)
[4] = dose: 12.5 mg/kg/injection, schedule: Q01DX009 (ip), vehicle: Klucel (hydroxypropylcellulose) (HPC)
[5] = dose: 25.0 mg/kg/injection, schedule: Q01DX009 (ip), vehicle: Klucel (hydroxypropylcellulose) (HPC)
[6] = dose: 50.0 mg/kg/injection, schedule: Q01DX009 (ip), vehicle: Klucel (hydroxypropylcellulose) (HPC)
[7] = dose: 25.0 mg/kg/injection, schedule: Q01DX009 (ip), vehicle: saline

C=CC(CO)N1CC1 (stereo not given) was tested, and the T/C (dose: 1.0 mg/kg/injection, schedule: Q01DX009 (ip), vehicle: other) was 119 % of control, the T/C (dose: 2.0 mg/kg/injection, schedule: Q01DX009 (ip), vehicle: other) was 116 % of control and the T/C (dose: 4.0 mg/kg/injection, schedule: Q01DX009 (ip), vehicle: other) was 111 % of control. For the same compound, the T/C (dose: 6.25 mg/kg/injection, schedule: Q04DX003 (ip), vehicle: other) was 100 % of control, the T/C (dose: 8.0 mg/kg/injection, schedule: Q01DX009 (ip), vehicle: other) was 113 % of control and the T/C (dose: 12.5 mg/kg/injection, schedule: Q04DX003 (ip), vehicle: other) was 100 % of control. For the same compound, the T/C (dose: 25.0 mg/kg/injection, schedule: Q04DX003 (ip), vehicle: other) was 96 % of control and the T/C (dose: 50.0 mg/kg/injection, schedule: Q04DX003 (ip), vehicle: other) was 109 % of control.

In the case of O=C1c2cccc3cc([N+](=O)[O-])cc(c23)C(=O)N1CCN1CCCC1, the T/C (dose: 1.56 mg/kg/injection, schedule: Q01DX009 (ip), vehicle: saline with Tween-80) is reported as 109 % of control, the T/C (dose: 3.12 mg/kg/injection, schedule: Q01DX009 (ip), vehicle: saline with Tween-80) is reported as 110 % of control and 111 % of control and the T/C (dose: 6.25 mg/kg/injection, schedule: Q01DX009 (ip), vehicle: saline with Tween-80) is reported as 91 % of control and 118 % of control. The T/C (dose: 25.0 mg/kg/injection, schedule: Q01DX009 (ip), vehicle: saline with Tween-80) was 110 % of control.

In the case of CCN(C(=O)Nc1ccc(OC)cc1)c1ccccc1C, the T/C [1] is reported as 102 % of control, the T/C [2] is reported as 102 % of control and the T/C [3] is reported as 102 % of control.

In the case of COc1cc2c(cc1Oc1c(Oc3c(O)c(OC)cc4c3C(CC(C)C)N(C)CC4)c(OC)cc3c1C(CC(C)C)N(C)CC3)C(CC(C)C)N(C)CC2 (stereo not given), the T/C [4] is reported as 100 % of control, the T/C [5] is reported as 96 % of control and the T/C [6] is reported as 110 % of control.

With COc1ccc(C2c3cc4c(c(OC)c3CC3OCC(=O)C32)OCO4)cc1OC (stereo not given) the T/C [4] was 102 % of control, the T/C [5] was 102 % of control and the T/C [6] was 117 % of control.

With CCCCCCCCCC(=O)CC the T/C [6] was 100 % of control, the T/C (dose: 100.0 mg/kg/injection, schedule: Q01DX009 (ip), vehicle: Klucel (hydroxypropylcellulose) (HPC)) was 99 % of control and the T/C (dose: 200.0 mg/kg/injection, schedule: Q01DX009 (ip), vehicle: Klucel (hydroxypropylcellulose) (HPC)) was 100 % of control.

With COc1ccc2c(c1)CN(S(=O)(=O)c1ccc(C)cc1)C=CC2=O the T/C [1] was 108 % of control, the T/C [2] was 103 % of control and the T/C [3] was 97 % of control.

CNCCCN(C)CCCNC was tested, and the T/C (dose: 6.25 mg/kg/injection, schedule: Q01DX009 (ip), vehicle: saline) was 121 % of control, the T/C (dose: 12.5 mg/kg/injection, schedule: Q01DX009 (ip), vehicle: saline) was 109 % of control and the T/C [7] was 96 % of control and 111 % of control.

For ClCCN(CCCl)CCCN1c2ccccc2Sc2ccccc21, the T/C (dose: 3.12 mg/kg/injection, schedule: Q04DX003 (ip), vehicle: saline with Tween-80) was 109 % of control and the T/C (dose: 6.25 mg/kg/injection, schedule: Q04DX003 (ip), vehicle: saline with Tween-80) was 97 % of control.

CC[C@](O)(C(=O)O)c1cc2n(c(=O)c1CO)Cc1cc3ccccc3nc1-2 was tested, and the T/C (dose: 0.79 mg/kg/injection, schedule: Q01DX009 (ip), vehicle: other) was 117 % of control, the T/C (dose: 1.0 mg/kg/injection, schedule: Q01DX009 (ip), vehicle: saline) was 115 % of control and 121 % of control and the T/C (dose: 2.0 mg/kg/injection, schedule: Q01DX009 (ip), vehicle: saline) was 117 % of control. The T/C (dose: 4.0 mg/kg/injection, schedule: Q01DX009 (ip), vehicle: saline) was 150 % of control.

For C1CCNCC1, the T/C [7] was 100 % of control, the T/C (dose: 50.0 mg/kg/injection, schedule: Q01DX009 (ip), vehicle: saline) was 102 % of control and the T/C (dose: 100.0 mg/kg/injection, schedule: Q01DX009 (ip), vehicle: saline) was 107 % of control. The T/C (dose: 200.0 mg/kg/injection, schedule: Q01DX009 (ip), vehicle: saline) was 102 % of control.
